Reference: patent publication US20230265094A1, “RIPK1 INHIBITORS AND METHODS OF USE” (Merck Sharp & Dohme LLC, priority 2020, published 2023)
Structures can show the parent of a compound that is named as a salt.

Target: T1, RIPK1 (Homo sapiens, UniProt Q13546)
T1 construct: recombinant GST-RIPK1 kinase domain (residues 1-327) enzyme produced from baculovirus-transfected Sf21 cells; host or cells: baculovirus-transfected Sf21 insect cells
T1 sequence (Q13546 1-327): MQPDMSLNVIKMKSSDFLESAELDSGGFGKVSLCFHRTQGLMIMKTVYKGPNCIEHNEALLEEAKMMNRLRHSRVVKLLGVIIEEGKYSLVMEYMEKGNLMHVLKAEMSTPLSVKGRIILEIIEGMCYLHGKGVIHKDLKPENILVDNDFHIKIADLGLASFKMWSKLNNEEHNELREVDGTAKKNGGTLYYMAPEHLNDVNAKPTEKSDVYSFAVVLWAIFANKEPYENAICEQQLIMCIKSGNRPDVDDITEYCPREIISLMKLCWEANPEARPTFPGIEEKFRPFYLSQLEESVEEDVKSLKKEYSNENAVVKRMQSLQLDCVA
Test: RIPK1-ADP-Glo enzymatic assay
Assay type: biochemical
Conditions: ADP-Glo luminescent ADP detection; 25 nM GST-RIPK1 kinase domain (residues 1-327), 300 μM ATP, dephosphorylated-MBP substrate; 30 min pre-incubation, 150 min reaction
Description: RIPK1-ADP-Glo Enzymatic Assay
The enzymatic activity of RIPK1 is measured using an assay derived from ADP-Glo kit (Promega™), which provides a luminescent-based ADP detection system. Specifically, the ADP generated by RIPK1 kinase is proportionally detected as luminescent signals in a homogenous fashion. In this context, the assessment of the inhibitory effect of small molecules (EC50) is measured by the effectiveness of the compounds to inhibit the ATP to ADP conversion by RIPK1.
In this assay, the potency (EC50) of each compound was determined from a ten-point (1:3 serial dilution; top compound concentration of 100000 nM) titration curve using the following outlined procedure. To each well of a white ProxiPlus 384 well-plate, 30 nL of compound (1% DMSO in final assay volume of 3 μL) was dispensed, followed by the addition of 2 μL of 1×assay buffer (25 mM Hepes 7.3, 20 mM MgCl2, 50 mM NaCl, 1 mM DTT, 0.005% Tween20, and 0.02% BSA) containing 37.5 nM of GST-RIPK1 (recombinant GST-RIPK1 kinase domain (residues 1-327) enzyme produced from baculovirus-transfected Sf21 cells: MW=62 kDa). Plates were placed in an ambient temperature humidified chamber for a 30 minutes pre-incubation with compound. Subsequently, each reaction was initiated by the addition of 1 μL 1×assay buffer containing 900 μM ATP and […] dephosphorylated-MBP substrate. The final reaction in each well of 3 μL consists of 25 nM of GST-RIPK1, 300 μM ATP, and 3 μM dephosphorylated-MBP. Kinase reactions were allowed to proceed for 150 minutes prior to adding ADP-Glo reagents per Promega's outlined kit protocol. Dose-response curves were generated by plotting percent effect (% product conversion; Y-axis) vs. Log10 compound concentrations (X-axis). EC50 values were calculated using a non-linear regression, four-parameters sigmoidal dose-response model.

Row | EC50 | Compound
1 | 10.5 nM | C[C@@H]1[C@@H](Oc2ccccc2)CN1C(=O)N1N=CC[C@H]1c1cc(F)cc(F)c1 (single isomer, unassigned) [Example 1.10, ((S)-5-(3,5-difluorophenyl)-4,5-dihydro-1H-pyrazol-1-yl)((2R,3S or 2S,3R)-2-methyl-3-phenoxyazetidin-1-yl)methanone, TFA salt]
2 | 85.9 nM | C[C@@H]1[C@H](Oc2ccnc(C#N)c2)CN1C(=O)N1N=CC[C@H]1c1cc(F)cc(F)c1 [Example 2.38, 4-(((2R,3R)-1-((S)-5-(3,5-difluorophenyl)-4,5-dihydro-1H-pyrazole-1-carbonyl)-2-methylazetidin-3-yl)oxy)picolinonitrile]
3 | 1380 nM | O=C(N1CC(Oc2ccccn2)C1)N1N=CC[C@H]1c1cc(F)cc(F)c1 [Example 1.58, (S)-(5-(3,5-difluorophenyl)-4,5-dihydro-1H-pyrazol-1-yl)(3-(pyridin-2-yloxy)azetidin-1-yl)methanone]
4 | 0.5 nM | O=C(N1CC(Oc2ccccc2)C1)N1N=CC[C@H]1c1ccccc1 (single isomer, unassigned) [Example 2.5]
5 | 22.9 nM | N#Cc1cc(C(F)(F)C2CN(C(=O)N3N=CC[C@H]3c3cc(F)cc(F)c3)C2)ccn1 [Example 2.41, (S)-4-((1-(5-(3,5-difluorophenyl)-4,5-dihydro-1H-pyrazole-1-carbonyl)azetidin-3-yl)difluoromethyl)picolinonitrile]
6 | 2290 nM | CC(C)C1(O)CN(C(=O)N2N=CC[C@H]2c2cc(F)cc(F)c2)C1 [Example 1.30, (S)-(5-(3,5-difluorophenyl)-4,5-dihydro-1H-pyrazol-1-yl)(3-hydroxy-3-isopropylazetidin-1-yl)methanone]
7 | 27.2 nM | CCOC1CN(C(=O)N2N=CC[C@H]2c2cc(F)cc(F)c2)C1 [Example 2.2, (S)-(5-(3,5-difluorophenyl)-4,5-dihydro-1H-pyrazol-1-yl)(3-ethoxyazetidin-1-yl)methanone]
8 | 11.9 nM | N#Cc1cccc(OC2CN(C(=O)N3N=CC[C@H]3c3cc(F)cc(F)c3)C2)c1 [Example 2.44, (S)-3-((1-(5-(3,5-difluorophenyl)-4,5-dihydro-1H-pyrazole-1-carbonyl)azetidin-3-yl)oxy)benzonitrile]
9 | 64.9 nM | COC1(C)CN(C(=O)N2N=CC[C@H]2c2ccc(Cl)cc2)C1 [Example 2.13, (S)-(5-(4-chlorophenyl)-4,5-dihydro-1H-pyrazol-1-yl)(3-methoxy-3-methylazetidin-1-yl)methanone]
10 | 140 nM | N#Cc1cc(OC2CN(C(=O)N3N=CCC3c3cc(F)cc(F)c3)C2)ncn1 (racemic) [Example 1.5, (R and S)-6-((1-(5-(3,5-difluorophenyl)-4,5-dihydro-1H-pyrazole-1-carbonyl)azetidin-3-yl)oxy)pyrimidine-4-carbonitrile, TFA salt]
11 | 9.6 nM | O=C(N1CC(Oc2ccccc2)C1)N1N=CC[C@H]1c1ccc(Cl)cc1 [Example 2.6, (S)-(5-(4-chlorophenyl)-4,5-dihydro-1H-pyrazol-1-yl)(3-phenoxyazetidin-1-yl)methanone]
12 | 104 nM | C[C@H]1[C@H](Oc2ccccc2)CN1C(=O)N1N=CC[C@H]1c1cc(F)cc(F)c1 (single isomer, unassigned) [Example 1.9, ((S)-5-(3,5-difluorophenyl)-4,5-dihydro-1H-pyrazol-1-yl)((2S,3R or 2R,3S)-2-methyl-3-phenoxyazetidin-1-yl)methanone, TFA salt]
13 | 98.5 nM | COC1(C)CN(C(=O)N2N=CC[C@H]2c2cc(F)cc(F)c2)C1 [Example 1.45, (S)-(5-(3,5-difluorophenyl)-4,5-dihydro-1H-pyrazol-1-yl)(3-methoxy-3-methylazetidin-1-yl)methanone]
14 | 18.2 nM | O=C(N1CC(Oc2nc3ccncc3s2)C1)N1N=CC[C@H]1c1cc(F)cc(F)c1 [Example 3.6, (S)-(5-(3,5-difluorophenyl)-4,5-dihydro-1H-pyrazol-1-yl)(3-(thiazolo[5,4-c]pyridin-2-yloxy)azetidin-1-yl)methanone, TFA salt]
15 | 1490 nM | Cc1nc(OC2CN(C(=O)N3N=CC[C@H]3c3cc(F)cc(F)c3)C2)cc(C(C)(C)O)n1 [Example 3.7, (S)-(5-(3,5-difluorophenyl)-4,5-dihydro-1H-pyrazol-1-yl)(3-((6-(2-hydroxypropan-2-yl)-2-methylpyrimidin-4-yl)oxy)azetidin-1-yl)methanone, TFA salt]
16 | 6.6 nM | C[C@@H]1[C@@H](Oc2ccnc(C#N)c2)CN1C(=O)N1N=CC[C@H]1c1cc(F)cc(F)c1 [Example 2.37, 4-(((2R,3S)-1-((S)-5-(3,5-difluorophenyl)-4,5-dihydro-1H-pyrazole-1-carbonyl)-2-methylazetidin-3-yl)oxy)picolinonitrile]
17 | 46.3 nM | N#Cc1cc(CC2CN(C(=O)N3N=CC[C@H]3c3cc(F)cc(F)c3)C2)ccn1 [Example 2.46, (S)-4-((1-(5-(3,5-difluorophenyl)-4,5-dihydro-1H-pyrazole-1-carbonyl)azetidin-3-yl)methyl)picolinonitrile]
18 | 12.8 nM | C[C@H]1[C@@H](Oc2ccc(F)cc2)CN1C(=O)N1N=CC[C@H]1c1cncc(C#N)c1 [Example 2.25, 5-((S)-1-((2S,3S)-3-(4-fluorophenoxy)-2-methylazetidine-1-carbonyl)-4,5-dihydro-1H-pyrazol-5-yl)nicotinonitrile]
19 | 73.6 nM | O=C(N1CCC1Cc1ccccc1)N1N=CC[C@H]1c1cc(F)cc(F)c1 (mixture of isomers) [Example 1.22, ((S)-2-benzylazetidin-1-yl)((R and S)-5-(3,5-difluorophenyl)-4,5-dihydro-1H-pyrazol-1-yl)methanone]
20 | 8.7 nM | O=C(N1CC(Oc2ccncc2)C1)N1N=CC[C@H]1c1cc(F)cc(F)c1 [Example 1.8, (S)-(5-(3,5-difluorophenyl)-4,5-dihydro-1H-pyrazol-1-yl)(3-(pyridin-4-yloxy)azetidin-1-yl)methanone, TFA salt]
21 | 26 nM | CC1CN(C(=O)N2N=CC[C@H]2c2cc(F)cc(F)c2)C1 [Example 1.40, (S)-(5-(3,5-difluorophenyl)-4,5-dihydro-1H-pyrazol-1-yl)(3-methylazetidin-1-yl)methanone]
22 | 25.5 nM | CC1(Oc2ccc(F)cc2)CN(C(=O)N2N=CC[C@H]2c2cncc(C#N)c2)C1 [Example 2.32, (S)-5-(1-(3-(4-fluorophenoxy)-3-methylazetidine-1-carbonyl)-4,5-dihydro-1H-pyrazol-5-yl)nicotinonitrile]
23 | 5.9 nM | C[C@@H]1[C@@H](Oc2ccc(F)cc2)CN1C(=O)N1N=CC[C@H]1c1ccc(Cl)cc1 [Example 2.28, ((S)-5-(4-chlorophenyl)-4,5-dihydro-1H-pyrazol-1-yl)((2R,3S)-3-(4-fluorophenoxy)-2-methylazetidin-1-yl)methanone]
24 | 11.5 nM | O=C(N1CC(OC2CCCC2)C1)N1N=CC[C@H]1c1cc(F)cc(F)c1 [Example 1.17, (S)-(3-(cyclopentyloxy)azetidin-1-yl)(5-(3,5-difluorophenyl)-4,5-dihydro-1H-pyrazol-1-yl)methanone, TFA salt]
25 | 14.2 nM | Cc1ncc([C@@H]2CC=NN2C(=O)N2CC(C)(Oc3ccc(F)cc3)C2)cc1F [Example 2.30, (S)-(5-(5-fluoro-6-methylpyridin-3-yl)-4,5-dihydro-1H-pyrazol-1-yl)(3-(4-fluorophenoxy)-3-methylazetidin-1-yl)methanone]
